Results published in PubChem BioAssay AID1996.
≈ marks a conversion by molar mass, not a printed value.

Conditions: buffer; pH 7.4; 200.0 µM

Compared with `Cc1ccccc1NC(=S)N1CCN(c2ccccc2Cl)CC1`, `O=C(Nc1ccccc1F)N1CCc2ccccc2C1` is higher in solubility kinetic: 17.5 µg/mL (≈ 50.6 µM) for the first, greater than 40.5 µg/mL for the second.

Going from `O=C(CNC(=O)c1ccc2c(c1)OCO2)NCCOc1ccc(Cl)cc1` to `O=S(=O)(Nc1ccc(Cl)cc1)c1ccc2c(c1)CCO2`, the solubility kinetic rises from 13.7 µg/mL (≈ 36.4 µM) to greater than 46.5 µg/mL.

First: N/C(=N\OC(=O)/C=C/c1ccccc1Cl)c1cccnc1
Second: Cc1ccc(CONC(=O)c2ccccc2)cc1
The solubility kinetic of the first is lower: 14.9 µg/mL (≈ 49.4 µM) for the first, greater than 36.2 µg/mL for the second.

`CN(c1ccccc1)c1nc(N)c([N+](=O)[O-])c(NCCO)n1` and `N#Cc1cc2ccccc2nc1N` cannot be ordered by solubility kinetic: 42.9 µg/mL (≈ 141 µM) for the first, greater than 25.4 µg/mL for the second.

`O=C(c1cc([N+](=O)[O-])ccc1N1CCCC1)N1CCCCC1` and `O=C(Nc1ccc(N2CCCCCC2)cc1)c1ccc[nH]1` are within 1.5-fold of each other in solubility kinetic: 25.9 µg/mL (≈ 85.4 µM) for the first, 18.7 µg/mL (≈ 66 µM) for the second.

First: Cc1ccc(NCc2ccc(O)c3ncccc23)cc1C
Second: CC(=O)c1c(C)nc2ccc(C)cc2c1-c1ccccc1
The solubility kinetic of the first is 6.2-fold lower: 3.6 µg/mL (≈ 12.9 µM) for the first, 22.2 µg/mL (≈ 80.6 µM) for the second.

`COc1ccc(C(=O)c2c[nH]c(C(=O)N=CN(C)C)c2)cc1` and `COc1ccc(/C=C/C(=O)N(C)c2ccccc2C(=O)O)cc1` are within 1.5-fold of each other in solubility kinetic: 42 µg/mL (≈ 140 µM) for the first, 45.2 µg/mL (≈ 145 µM) for the second.

Compared with `CCc1c(C)nc(N)nc1Cl`, `CCc1nc(SCC(=O)O)c2c3c(sc2n1)COC(C)(C)C3` is higher in solubility kinetic: 24.1 µg/mL (≈ 140 µM) for the first, greater than 50.8 µg/mL for the second.

First: CCSc1ncc(Cl)c(C(=O)Nc2ccccc2OC)n1
Second: Cc1ccccc1NC(=O)Nc1cnccn1
The solubility kinetic of the first is lower: less than 0.2 µg/mL for the first, 12.4 µg/mL (≈ 54.3 µM) for the second.

`CC(=O)Nc1cccc(NC(=O)C2C3C=CC(C3)C2C(=O)O)c1` (configuration not stated) and `CCCNCC(=O)Nc1cccc(S(=O)(=O)NC2=NCCCCC2)c1.O=C(O)C(=O)O` cannot be ordered by solubility kinetic: greater than 47.2 µg/mL for the first, greater than 68.5 µg/mL for the second.

Compared with `Cc1cccc(Nc2c([N+](=O)[O-])ccc3nonc23)c1`, `Cc1ccc(OCc2ccc(C(=O)NN)o2)c([N+](=O)[O-])c1` is higher in solubility kinetic: less than 0.1 µg/mL for the first, greater than 43.7 µg/mL for the second.

Going from `CC(C)N(Cc1nc(-c2ccccc2)no1)C(=O)C(Cl)(Cl)Cl` to `COc1ccccc1CNC(=O)c1sccc1-c1ccccc1`, the solubility kinetic rises from 5.9 µg/mL (≈ 16.3 µM) to 14.4 µg/mL (≈ 44.5 µM) (2.4-fold).

Compared with `Fc1ccc(C(CCNCc2cccs2)c2ccco2)cc1` (configuration not stated), `Cc1ccc(C(=O)Nc2nc(-c3ccc(F)cc3)cs2)o1` is 7.8-fold lower in solubility kinetic: 34.2 µg/mL (≈ 108 µM) for the first, 4.4 µg/mL (≈ 14.6 µM) for the second.

`Cc1nn(C)c(C)c1/C=C/C(=O)O` and `COC(=O)c1c(C)oc(C)c1S(=O)(=O)N1CCCC1` cannot be ordered by solubility kinetic: greater than 27 µg/mL for the first, 38.3 µg/mL (≈ 133 µM) for the second.

Going from `COc1cc(=O)[nH]c(SC(C)C(=O)Nc2cc(C)on2)n1` (configuration not stated) to `Cc1cc(=O)[nH]c(SC(C)C(=O)Nc2cccc3ccccc23)n1` (configuration not stated), the solubility kinetic falls from greater than 46.5 µg/mL to 42.7 µg/mL (≈ 126 µM).

Compared with `O=C(/C=C/c1ccccn1)c1cc(Cl)cc(Cl)c1O`, `O=C(CCCOc1ccc(Cl)cc1Cl)Nc1ccccc1C(=O)O` is higher in solubility kinetic: 5.9 µg/mL (≈ 20.1 µM) for the first, greater than 55.2 µg/mL for the second.

First: COc1ccc(Oc2nc(-c3ccccn3)nc3ccccc23)cc1
Second: O=c1[nH]c2ccccc2nc1-c1ccccc1
The solubility kinetic of the first is 4.5-fold higher: 17.6 µg/mL (≈ 53.4 µM) for the first, 3.9 µg/mL (≈ 17.5 µM) for the second.

Going from `COc1ccc(OCC(=O)NC2CCCCCCC2)cc1` to `COC(=O)c1ccc(OCC(=O)NC2CCCCCCC2)cc1`, the solubility kinetic rises from 37.7 µg/mL (≈ 129 µM) to greater than 47.9 µg/mL.

`NC(=O)c1cc(S(=O)(=O)NCc2ccccc2)cs1` and `O=S(=O)(O)c1ccc(SCc2ccccc2)nc1` cannot be ordered by solubility kinetic: greater than 44.5 µg/mL for the first, greater than 42.2 µg/mL for the second.

`CCC(=O)Nc1ccc(C(=O)OCc2ccccc2)cc1` and `O=C(COc1ccccc1)Nc1ccc2oc(=O)ccc2c1` are within 1.5-fold of each other in solubility kinetic: 8.6 µg/mL (≈ 30.4 µM) for the first, 9.8 µg/mL (≈ 33.2 µM) for the second.

`CC(=O)c1c2c3c(cccc3n(C)c1=O)C(=O)c1ccccc1-2` and `Cc1cccc(NC(=O)CCCn2c(=S)[nH]c3ccccc3c2=O)c1` cannot be ordered by solubility kinetic: less than 0.6 µg/mL for the first, 0.3 µg/mL (≈ 0.849 µM) for the second.

`O=C(NNC(=S)NCCCN1CCOCC1)c1ccncc1` and `Brc1ccccc1OCCN1CCOCC1.O=C(O)C(=O)O` cannot be ordered by solubility kinetic: greater than 48.5 µg/mL for the first, greater than 56.4 µg/mL for the second.

Going from `NC1=NC(=O)/C(=C/c2ccsc2)S1` to `O=C1NC(=Nc2ccc(O)cc2)S/C1=C\C=C\c1ccco1`, the solubility kinetic falls from 19.5 µg/mL (≈ 92.7 µM) to 4.7 µg/mL (≈ 15 µM) (4.1-fold).

Going from `Cl.NC(=NCc1ccccc1)c1cccc([N+](=O)[O-])c1` to `Oc1cccc(C(=S)N2CCC(Cc3ccccc3)CC2)c1`, the solubility kinetic falls from greater than 43.8 µg/mL to 15 µg/mL (≈ 48.2 µM).

`COc1ccc(CCC(=O)OCC(=O)NCc2ccc(OC)c(OC)c2)cc1OC` and `COc1ccc(CNC(=O)c2ccc[nH]2)cc1` cannot be ordered by solubility kinetic: greater than 62.6 µg/mL for the first, greater than 34.5 µg/mL for the second.

`CCn1c([N+](=O)[O-])nc2c1c(=O)[nH]c(=O)n2C` and `CC(O)Cn1c(N2CCCC2)nc2c1c(=O)n(C)c(=O)n2C` (configuration not stated) cannot be ordered by solubility kinetic: greater than 35.9 µg/mL for the first, greater than 46.1 µg/mL for the second.

First: FC(F)(F)c1ccnc(Oc2ccc(C3=NCCS3)cc2)c1
Second: Cn1cc(S(=O)(=O)Nc2ccc(OC(F)(F)F)cc2)c(=O)n(C)c1=O
The solubility kinetic of the first is lower: 2.2 µg/mL (≈ 6.78 µM) for the first, greater than 56.9 µg/mL for the second.

Going from `Cc1ccc(/C=C2\C(=O)NC(=S)N(c3cccc(F)c3)C2=O)o1` to `Cc1ccc(S(=O)(=O)c2c[nH]c3cc4c(cc3c2=O)OCO4)cc1`, the solubility kinetic falls from 43.1 µg/mL (≈ 130 µM) to 2 µg/mL (≈ 5.82 µM) (22-fold).

`CCCCCCC(=O)Nc1ccc(S(=O)(=O)Nc2onc(C)c2C)cc1` and `COc1ccc([N+](=O)[O-])cc1NS(=O)(=O)c1cccc(C(=O)NCCCN2CCCC2=O)c1` cannot be ordered by solubility kinetic: greater than 56.9 µg/mL for the first, greater than 71.5 µg/mL for the second.

`CNC(=S)Nc1ccc(Cc2ccncc2)cc1` and `O=C(Nc1ccncc1Cl)c1ccncc1` cannot be ordered by solubility kinetic: greater than 38.6 µg/mL for the first, greater than 35 µg/mL for the second.

Compared with `Cc1cc(=O)[nH]c(SCC(=O)NC2CCCCC2)n1`, `COc1ccc(Cl)cc1NC(=O)COC(=O)C1CCCCC1` is 10-fold lower in solubility kinetic: 32.3 µg/mL (≈ 115 µM) for the first, 3.2 µg/mL (≈ 9.82 µM) for the second.

Going from `COc1ccc(NC(=O)CN2CCCCCC2)cc1OC` to `Cc1cnc(C(=O)Nc2ccc(N3CCCCC3)cc2)cn1`, the solubility kinetic falls from 32.2 µg/mL (≈ 110 µM) to 4.2 µg/mL (≈ 14.2 µM) (7.7-fold).

First: O=C(COc1ccc(F)cc1)Nc1nc2c(s1)CCCC2
Second: Cc1ccc(S(=O)(=O)N2CCCCC2)cc1NC(=O)COc1ccccc1
The solubility kinetic of the first is 1.7-fold lower: 2.6 µg/mL (≈ 8.49 µM) for the first, 4.3 µg/mL (≈ 11.1 µM) for the second.

First: CCc1sc(C(=O)Nc2nc(-c3ccccn3)cs2)cc1C
Second: CCCC(C)NC(=O)CN1C(=O)c2cccc3cccc1c23 (configuration not stated)
The solubility kinetic of the first is 2.9-fold lower: 2.9 µg/mL (≈ 8.8 µM) for the first, 8.3 µg/mL (≈ 28 µM) for the second.

Compared with `OCc1nc2ccccc2n1CCOc1ccccc1`, `Cc1cccc(/N=C2/NC(=O)C(Cc3ccccc3)S2)n1` (configuration not stated) is lower in solubility kinetic: greater than 40.2 µg/mL for the first, 0.3 µg/mL (≈ 1.01 µM) for the second.

`NC(=O)Cn1ccc(O)c(Cc2ccc(Cl)cc2Cl)c1=O` and `Nc1ccccc1-c1nnc(SCC(=O)Nc2ccccc2OC(F)F)[nH]c1=O` cannot be ordered by solubility kinetic: greater than 49.1 µg/mL for the first, greater than 62.9 µg/mL for the second.

Compared with `CC(NS(=O)(=O)c1ccc(Cl)cc1)C(=O)N1CCOCC1` (configuration not stated), `O=C(c1cc(S(=O)(=O)N2CCOCC2)ccc1Cl)N1CCCCC1CO` (configuration not stated) is higher in solubility kinetic: 39.7 µg/mL (≈ 119 µM) for the first, greater than 60.4 µg/mL for the second.

First: CC(C)(C)Nc1nc2cc([N+](=O)[O-])ccc2o1
Second: CC(C)C(Nc1ccc(C(F)(F)F)cc1[N+](=O)[O-])C(=O)O (configuration not stated)
The solubility kinetic of the first is lower: 10.9 µg/mL (≈ 46.3 µM) for the first, greater than 45.9 µg/mL for the second.

`COC(=O)c1ccccc1C(=O)N1CC(O)CO1` (configuration not stated) and `CC(C)NC(=O)c1ccccc1NC(=O)C1CC(=O)N(C(C)C)C1` (configuration not stated) cannot be ordered by solubility kinetic: greater than 37.7 µg/mL for the first, greater than 49.7 µg/mL for the second.

`C=CC(=O)NN(C)c1ncc(C(F)(F)F)cc1Cl` and `O=c1cc(C(F)(F)F)[nH]c2ccc(OC(F)(F)F)cc12` cannot be ordered by solubility kinetic: greater than 41.9 µg/mL for the first, greater than 44.6 µg/mL for the second.

`O=C1OC(CO)CN1Cc1ccccc1` (configuration not stated) and `O=C(O)C1(c2ccccc2)CCC(Nc2ccccc2)C1` (configuration not stated) are within 1.5-fold of each other in solubility kinetic: 30.3 µg/mL (≈ 146 µM) for the first, 39.7 µg/mL (≈ 141 µM) for the second.

First: Fc1cccc(Cl)c1CSC1=NCCS1
Second: Cc1cc(C)cc(C(=O)N(C)C2CCCN(Cc3ccccc3F)C2)c1 (configuration not stated)
The solubility kinetic of the first is lower: 2.3 µg/mL (≈ 8.79 µM) for the first, greater than 53.2 µg/mL for the second.

`COc1ccc(CN=C(N)N=C(N)N)cc1Cl.Cl` and `COc1ccccc1NC(=O)COC(=O)C1CCCC1` cannot be ordered by solubility kinetic: greater than 43.8 µg/mL for the first, greater than 41.6 µg/mL for the second.

For `COCCCNC(=S)Nc1ccc(N2CCCCC2)cc1`, the solubility kinetic was greater than 46.1 µg/mL.
